We go through 13 compounds from ChEMBL document CHEMBL4346704, “Novel symmetric bis-benzimidazoles: Synthesis, DNA/RNA binding and antitrypanosomal activity” (Eur J Med Chem, 2019).

Assay [1] can be described thus: Ratio of compound concentration to polynucleotide phosphate concentration for binding affinity to polyA-polyU dsRNA (unknown origin). In kind it is nucleic-acid assay.
In assay [2] the test system is Calf thymus DNA. Put plainly: Binding affinity to calf thymus DNA by UV-vis spectrophotometric method. The assay is classed as nucleic-acid assay. Conditions: Bos taurus.
For assay [3], the system named is Trypanosoma brucei. Put plainly: Antitrypanosomal activity against Trypanosoma brucei 221 incubated for 48 hrs by resazurin based fluorescence assay. In kind it is functional, organism-based. The following applies: Trypanosoma brucei, 221, 48 h. (In general: Alamar Blue is a resazurin reagent that responds to reducing activity.)
Assay [4] has as its system L6. Put plainly: Cytotoxicity against rat L6 cells incubated for 6 days by resazurin based fluorescence assay. The following applies: L6, 144 h. The assay is classed as cell-based.
Assay [5] relates to Calf thymus DNA. Put plainly: Binding affinity to calf thymus DNA assessed as change in melting temperature at compound to calf thymus DNA polynucleotide ratio of 0.3 by spectrophotometric analysis. In kind it is nucleic-acid assay. Conditions: Bos taurus.
Assay [6] has as its system Calf thymus DNA. As to the kind of experiment: Binding affinity to calf thymus DNA assessed as change in melting temperature at compound to calf thymus DNA polynucleotide ratio of 0.5 by spectrophotometric analysis. The assay is classed as nucleic-acid assay. The following applies: Bos taurus.
The test system of assay [7] is Poly(dA-dU)oligonucleotide. Put plainly: Binding affinity to polyA-polyU dsRNA (unknown origin) assessed as change in melting temperature at 0.5 ratio of compound to RNA by spectrophotometric analysis. In kind it is nucleic-acid assay.
Assay [8] relates to Calf thymus DNA. Put plainly: Ratio of compound concentration to polynucleotide phosphate concentration for binding affinity to calf thymus DNA. In kind it is nucleic-acid assay. Conditions: Bos taurus.
Assay [9] deals with Calf thymus DNA. Put plainly: Binding affinity to calf thymus DNA assessed as hypochromic effect by UV-vis spectrophotometric method relative to control. The assay is classed as nucleic-acid assay. Also noted: concentration or dose not given beside the values. Conditions: Bos taurus.
Assay [10] has as its system Poly(dA-dU)oligonucleotide. Put plainly: Binding affinity to polyA-polyU dsRNA (unknown origin) assessed as change in melting temperature at 0.3 ratio of compound to RNA by spectrophotometric analysis. In kind it is nucleic-acid assay.
Assay [11] has as its system Poly(dA-dU)oligonucleotide. Put plainly: Binding affinity to polyA-polyU dsRNA (unknown origin) assessed as binding constant by UV-vis spectrophotometric method. The assay is classed as nucleic-acid assay.
Assay [12] relates to Calf thymus DNA. Put plainly: Binding affinity to calf thymus DNA assessed as change in melting temperature at compound to calf thymus DNA polynucleotide ratio of 0.1 by spectrophotometric analysis. In kind it is nucleic-acid assay. The following applies: Bos taurus.
The subject of assay [13] is Calf thymus DNA. As to the kind of experiment: Binding affinity to calf thymus DNA assessed as conformational change by circular dichroism analysis. In kind it is nucleic-acid assay. Conditions: Bos taurus. A general note: Circular dichroism is the unequal absorption of left and right circularly polarised light.
The nature of assay [14]: Binding affinity to polyA-polyU dsRNA (unknown origin) assessed as hypochromic effect by UV-vis spectrophotometric method relative to control. The assay is classed as nucleic-acid assay. Also noted: concentration or dose not given beside the values.
Assay [15] in a line: Binding affinity to polyA-polyU dsRNA (unknown origin) assessed as change in melting temperature at 0.1 ratio of compound to RNA by spectrophotometric analysis. In kind it is nucleic-acid assay.

The source made the active and inactive calls. The calls are words filed in the database; no cut-off is given here.

Take `Fc1ccc2[nH]c(-c3ccc(Cn4cc(CCCc5cn(Cc6ccc(-c7nc8cc(F)ccc8[nH]7)o6)nn5)nn4)o3)nc2c1`: the Ratio stood at 0.5 in assay [1] and 0.15 in assay [8]. Moreover, the log Ks in assay [2] came to 6.56; in assay [11] it was 4.94. In addition, the IC50 worked out at 4 µM in assay [3] and 221 µM in assay [4]. The same compound showed an IC90 in assay [3] of 8.9 µM. The ΔTm in [5] came out at 1.3 °C; in [6], 2 °C; in [7], 2 °C; in [10], 1.3 °C; in [12], 0.8 °C; in assay [15], 0.8 °C. Moreover, the Activity in [9] amounted to 46%; in [14], 31%. Further, in assay [13], the outcome was inactive.

In the case of `c1ccc2[nH]c(-c3ccc(Cn4cc(COCc5cn(Cc6ccc(-c7nc8ccccc8[nH]7)o6)nn5)nn4)o3)nc2c1`, the Ratio in assay [1] is 0.31; in assay [8], 0.29. The log Ks in assay [2] is 6.22; in [11], 5.76. Moreover, the IC50 in assay [3] is > 15 µM. Moreover, the ΔTm came to 0.7 °C in assay [5]; 1.1 °C in assay [6]; 0.6 °C in assay [7]; 0 °C in assay [10]; 0.6 °C in assay [12]; 0.6 °C in [15]. Further, the Activity in assay [9] was found to be 36%; in assay [14], 41%. The result in assay [13] was inactive.

`Fc1ccc2[nH]c(-c3ccc(Cn4cc(COc5ccc(OCc6cn(Cc7ccc(-c8nc9cc(F)ccc9[nH]8)o7)nn6)cc5)nn4)o3)nc2c1` returned a log Ks in [2] of 5.92. The IC50 in assay [3] was found to be 3.4 µM; in assay [4] it was 219 µM. This compound returned an IC90 in [3] of 6.7 µM. The ΔTm stood at 1.2 °C in [5]; 3.4 °C in assay [6]; 0 °C in assay [7]; 0 °C in assay [10]; 0.5 °C in assay [12]; 0 °C in [15]. The Ratio in assay [8] is 0.17. Further, the Activity stood at 25% in [9] and 11% in assay [14]. The result in assay [13] was inactive.

Take `c1ccc2[nH]c(-c3ccc(Cn4cc(COc5ccc(OCc6cn(Cc7ccc(-c8nc9ccccc9[nH]8)o7)nn6)cc5)nn4)o3)nc2c1`: the results for the Ratio in assay [1] and in assay [8] were 0.3 and 0.1, respectively. Besides, the log Ks in [2] was determined as 6.18; in [11], 5.5. The IC50 in assay [3] is > 15 µM. For the same compound, the ΔTm came to 3.2 °C in [5]; 2.6 °C in [6]; 0 °C in [7]; 0 °C in assay [10]; 2.8 °C in assay [12]; 0 °C in assay [15]. In addition, the results for the Activity in assay [9] and in [14] were 35% and 22%, respectively. Moreover, in assay [13], the outcome was inactive.

With `Clc1ccc2[nH]c(-c3ccc(Cn4cc(COc5ccc(OCc6cn(Cc7ccc(-c8nc9cc(Cl)ccc9[nH]8)o7)nn6)cc5)nn4)o3)nc2c1`, the log Ks in assay [2] stood at 6.33. Further, the IC50 in assay [3] was 1.4 µM; in assay [4], > 270 µM. The compound also came in with an IC90 in [3] of 2.5 µM. Further, the ΔTm in assay [5] is 1.5 °C; in assay [6], 2 °C; in assay [7], 0 °C; in assay [10] it was 0 °C; in assay [12], 0.7 °C; in [15], 0 °C. In [8], the Ratio came out at 0.65. Further, the Activity in assay [9] amounted to 27%; in assay [14], 7%. The outcome in assay [13] was inactive.

In the case of `CC(C)NC(=N)c1ccc2[nH]c(-c3ccc(Cn4cc(CCCc5cn(Cc6ccc(-c7nc8cc(C(=N)NC(C)C)ccc8[nH]7)o6)nn5)nn4)o3)nc2c1.Cl.Cl`, the Ratio in assay [1] is 0.58; in assay [8], 0.09. In addition, the log Ks in [2] came to 6.33; in assay [11], 5.69. For the same compound, the figures for the IC50 in assay [3] and in [4] were 5.1 µM and 104 µM, respectively. In assay [3], it took 8.2 µM to reach the 90% level (IC90). Moreover, the ΔTm in assay [5] amounted to 14.5 °C; in assay [6], 14.8 °C; in assay [7], 0.8 °C; in assay [10] it was 0.5 °C; in [12], 13.8 °C; in [15] it was 0.9 °C. For the same compound, the values for the Activity in assay [9] and in assay [14] were 24% and 32%, respectively. In addition, the outcome in [13] was Active.

Turning to `CC(C)NC(=N)c1ccc2[nH]c(-c3ccc(Cn4cc(COCc5cn(Cc6ccc(-c7nc8cc(C(=N)NC(C)C)ccc8[nH]7)o6)nn5)nn4)o3)nc2c1`, the Ratio was found to be 0.3 in assay [1] and 0.67 in assay [8]. In addition, the figures for the log Ks in assay [2] and in [11] were 5.68 and 6.16, respectively. The same compound gave an IC50 in assay [3] of 7.9 µM. Also, the IC90 in assay [3] was found to be 10.8 µM. Moreover, the ΔTm in assay [5] came to 9.7 °C; in assay [6], 11.1 °C; in [7], 1.6 °C; in [10] it was 2 °C; in assay [12], 8.1 °C; in assay [15], 1.3 °C. Also, the Activity was 21% in assay [9] and 13% in [14]. Besides, in [13], the result was Active.

`Clc1ccc2[nH]c(-c3ccc(Cn4cc(COc5ccc(-c6ccc(OCc7cn(Cc8ccc(-c9nc%10cc(Cl)ccc%10[nH]9)o8)nn7)cc6)cc5)nn4)o3)nc2c1` registered a log Ks in assay [2] of 4. For the same compound, the IC50 in assay [3] came out at 0.37 µM; in [4], 30.4 µM. Moreover, the IC90 in [3] was found to be 9.7 µM. Also, the thermal shift (ΔTm) in [5] and in assay [10] was 0 °C in each case. For the same compound, in [8], the Ratio is 0.3. Also, the Activity in assay [9] was found to be 16%; in [14], 15%. Also, the outcome in assay [13] was inactive.

For `c1ccc2[nH]c(-c3ccc(Cn4cc(CCCc5cn(Cc6ccc(-c7nc8ccccc8[nH]7)o6)nn5)nn4)o3)nc2c1`, the results for the Ratio in assay [1] and in assay [8] were 0.13 and 0.19, respectively. In addition, the log Ks in assay [2] turned out to be 6.55; in [11], 6.54. Also, the IC50 in assay [3] was > 15 µM. The ΔTm in assay [5] is 1.2 °C; in [6], 3.2 °C; in assay [7], 0 °C; in assay [10], 0 °C; in assay [12], 2.6 °C; in assay [15], 0 °C. The Activity in assay [9] came out at 45%; in [14], 10%. For the same compound, in assay [13], the outcome was inactive.

`c1ccc2[nH]c(-c3ccc(Cn4cc(COc5ccc(-c6ccc(OCc7cn(Cc8ccc(-c9nc%10ccccc%10[nH]9)o8)nn7)cc6)cc5)nn4)o3)nc2c1` showed a log Ks in assay [2] of 4. Besides, the IC50 in [3] was > 10 µM. In addition, the ΔTm in assay [5] and in assay [10] was 0 °C in each case. The Ratio in assay [8] stood at 0.3. Moreover, the Activity in [9] was 14%; in assay [14] it was 12%. Further, the outcome in assay [13] was inactive.

As to `Clc1ccc2[nH]c(-c3ccc(Cn4cc(CCCc5cn(Cc6ccc(-c7nc8cc(Cl)ccc8[nH]7)o6)nn5)nn4)o3)nc2c1`, the results for the Ratio in [1] and in [8] were 0.5 and 0.05, respectively. The values for the log Ks in assay [2] and in assay [11] were 7.04 and < 4, respectively. Moreover, the IC50 is 3 µM in assay [3] and > 300 µM in assay [4]. The same compound displayed an IC90 in assay [3] of 7.2 µM. The ΔTm in assay [5] turned out to be 4.1 °C; in [6] it was 2.5 °C; in assay [7], 0 °C; in assay [10], 0 °C; in [12] it was 2.1 °C; in assay [15], 0 °C. Also, the Activity in assay [9] was determined as 27%; in assay [14], 34%. Further, in assay [13], the outcome was inactive.

For `Fc1ccc2[nH]c(-c3ccc(Cn4cc(COCc5cn(Cc6ccc(-c7nc8cc(F)ccc8[nH]7)o6)nn5)nn4)o3)nc2c1`, the Ratio stood at 0.35 in assay [1] and 0.47 in assay [8]. Moreover, the log Ks is 5.93 in assay [2] and 6.43 in assay [11]. In assay [3], this compound displayed an IC50 of 7.9 µM. The IC90 in assay [3] was > 25 µM. The ΔTm in assay [5] came to 0.5 °C; in assay [6], 0 °C; in assay [7], 1 °C; in assay [10], 1 °C; in assay [12], 0 °C; in assay [15] it was 1 °C. Further, the results for the Activity in [9] and in assay [14] were 35% and 51%, respectively. Also, the result in assay [13] was inactive.

Take `Clc1ccc2[nH]c(-c3ccc(Cn4cc(COCc5cn(Cc6ccc(-c7nc8cc(Cl)ccc8[nH]7)o6)nn5)nn4)o3)nc2c1`: the Ratio in assay [1] was 0.19; in assay [8] it was 0.21. Further, the log Ks in [2] turned out to be 5.21; in assay [11] it was 5.12. The same compound had an IC50 in [3] of 6.4 µM. This compound had an IC90 in [3] of 11.8 µM. Besides, the ΔTm in assay [5] is 1.2 °C; in assay [6] it was 2.6 °C; in [7] it was 0.6 °C; in assay [10], 0.6 °C; in assay [12], 0.7 °C; in assay [15], 1 °C. For the same compound, the Activity in assay [9] was found to be 35%; in assay [14] it was 52%. The outcome in [13] was inactive.

Broadly, the IC50 is the concentration needed to halve the response being measured. As usually defined, the IC90 is the concentration at which the effect reaches the 90% level. As usually defined, the ΔTm is the shift of the melting midpoint relative to a reference.
